In patent publication US20250188092A1, “RIFAMYCIN ANALOGS” (THE REGENTS OF THE UNIVERSITY OF MICHIGAN, priority 2021, published 2025):

Experiments:
[1] = tested on: DPX2 cells; details: for DPX2 Viability @ 6.25 μM: 24 h; for DPX2 Viability @ 25 μM: human
[2] = target: T1, E. coli D516V (RIF^R) RNAP (Escherichia coli, UniProt P0A8V2, D516V); experiment: biochemical
T1 construct: made in house

[3] = target: T2, E. coli WT RNAP (Escherichia coli, UniProt P0A8V2); experiment: biochemical
T2 construct: made in house

[4] = tested on: VERO cells (ATCC CRL-81); experiment: Vero cell toxicity; format: cell-based; details: Chlorocebus sabaeus, Vero; 72 hours exposure
Procedure: Cytotoxicity for a mammalian cell line was determined by exposing VERO cells (ATCC CRL-81) to serial dilutions of test compounds for 72 hours, followed by addition of resazurin and measurement of fluorescence after 4 hours incubation (Choules, et al., Antimnicrob. Agents Chemother. 2019, 63, e02204-02218).

[5] = tested on: MTB H37Rv ATCC 27294; experiment: MIC, microplate Alamar Blue assay (MABA); format: cell-based, Mycobacterium tuberculosis
[6] = target: T3, E. coli S531L (RIF^R) RNAP (Escherichia coli, UniProt P0A8V2, S531L); experiment: biochemical
T3 construct: made in house

[7] = Mycobacterium tuberculosis, MTB H37Rv ATCC 27294, microplate Alamar Blue assay, lowest concentration giving ≥90% reduction in fluorescence

Structure (SMILES): CO[C@H]1/C=C/O[C@@]2(C)Oc3c(C)c(O)c4c(=O)c(c5oc6cccc(OCCCCN7CCN(C(=O)CN8CCOCC8)CC7)c6nc-5c4c3C2=O)NC(=O)/C(C)=C\C=C\[C@H](C)[C@H](O)[C@@H](C)[C@@H](O)[C@@H](C)[C@H](OC(C)=O)[C@@H]1C [Compound 5e, (7S,9E,11S,12R,13S,14R,15R,16R,17S,18S,19E,21Z)-2,15,17-Trihydroxy-11-methoxy-3,7,12,14,16,18,22-heptamethyl-32-(4-{4-[2-(morpholin-4-yl)acetyl]piperazin-1-yl}butoxy)-6,23,37-trioxo-8,27,38-trioxa-24,34-diazahexacyclo[23.11.1.1^4,7.0^5,36.0^26,35.0^28,33]octatriaconta-1(36)2,4,9,19,21,25,28(33)29,31,34-undecaen-13-yl acetate]
- DPX2 Viability @ 6.25 μM [1]: 106%
- DPX2 Viability @ 25 μM [1]: 83%
- IC50 [2]: 23 µM
- IC50 [3]: 0.007 µM
- IC50 [4]: > 8 µM
- MIC90 MABA Rel to RMP [5]: 1.4
- MIC ([5]; Mycobacterium tuberculosis, MTB H37Rv ATCC 27294, microplate Alamar Blue assay, lowest concentration giving ≥90% reduction in fluorescence, read-out: MIC90 MABA): 0.082 µM
- IC50 [6]: > 1000 µM

Structure (SMILES): CO[C@H]1/C=C/O[C@@]2(C)Oc3c(C)c(O)c4c(=O)c(c5oc6cccc(OCc7cccc(CN8CCN(C(C)=O)CC8)c7)c6nc-5c4c3C2=O)NC(=O)/C(C)=C\C=C\[C@H](C)[C@H](O)[C@@H](C)[C@@H](O)[C@@H](C)[C@H](OC(C)=O)[C@@H]1C [Compound 11c, (7S,9E,11S,12R,13S,14R,15R,16R,17S,18S,19E,21Z)-32-({3-[(4-Acetylpiperazin-1-yl)methyl]phenyl}methoxy)-2,15,17-trihydroxy-11-methoxy-3,7,12,14,16,18,22-heptamethyl-6,23,37-trioxo-8,27,38-trioxa-24,34-diazahexacyclo-[23.11.1.1^4,7.0^5,36.0^26,35.0^28,33]octatriaconta-1(36)2,4,9,19,21,25,28,30,32,34-undecaen-13-yl acetate]
- DPX2 Viability @ 6.25 μM [1]: 103%
- DPX2 Viability @ 25 μM [1]: 70%
- IC50 [2]: 8.8 µM
- IC50 [3]: 0.019 µM
- IC50 [4]: > 8 µM
- MIC90 MABA Rel to RMP [5]: 1.4
- MIC90 [5, 7]: 0.058 µM
- IC50 [6]: 330 µM

Structure (SMILES): CCC(=O)N1CCN(Cc2cccc(COc3cccc4oc5c6c(=O)c7c(O)c(C)c8c(c7c-5nc34)C(=O)[C@@](C)(O/C=C/[C@H](OC)[C@@H](C)[C@@H](OC(C)=O)[C@H](C)[C@H](O)[C@H](C)[C@@H](O)[C@@H](C)/C=C/C=C(/C)C(=O)N6)O8)c2)CC1 [Compound 11d, (7S,9E,11S,12R,13S,14R,15R,16R,17S,1S,19E,21Z)-2,15,17-Trihydroxy-11-methoxy-3,7,12,14,16,18,22-heptamethyl-6,23,37-trioxo-32-{(3-[(4-propanoylpiperazin-1-yl)methyl]phenyl}methoxy)-8,27,38-trioxa-24,34-diazahexacyclo[23.11.1.1^4,7.0^5,36.0^26,35.0^28,33]octatriaconta-1(36)2,4,9,19,21,25,28,30,32,34-undecaen-13-yl acetate]
- DPX2 Viability @ 6.25 μM [1]: 77%
- DPX2 Viability @ 25 μM [1]: 33%
- IC50 [2]: 0.9 µM
- IC50 [3]: < 0.005 µM
- IC50 [4]: 19.1 µM
- MIC90 MABA Rel to RMP [5]: 0.43
- MIC90 [5, 7]: 0.016 µM
- IC50 [6]: 94 µM

Structure (SMILES): CO[C@H]1/C=C/O[C@@]2(C)Oc3c(C)c(O)c4c(=O)c(c5oc6cccc(OCc7cccc(CN8CCN(C(=O)CN9CCOCC9)CC8)c7)c6nc-5c4c3C2=O)NC(=O)/C(C)=C\C=C\[C@H](C)[C@H](O)[C@@H](C)[C@@H](O)[C@@H](C)[C@H](OC(C)=O)[C@@H]1C [Compound 11f, (7S,9E,11S,12R,13S,14R,15R,16R,17S,1S,19E,21Z)-2,15,17-Trihydroxy-11-methoxy-3,7,12,14,16,18,22-heptamethyl-32-{[3-({4-[2-(morpholin-4-yl)acetyl]piperazin-1-yl}methyl)phenyl]methoxy}-6,23,37-trioxo-8,27,38-trioxa-24,34-diazahexacyclo[23.11.1.1^4,7.0^5,36.0^26,35.0^28,33]octatriaconta-1(36)2,4,9,19,21,25,28,30,32,34-undecaen-13-yl acetate]
- DPX2 Viability @ 6.25 μM [1]: 103%
- DPX2 Viability ([1]; […] μM): 57%
- IC50 [2]: 39 µM
- IC50 [3]: 0.01 µM
- IC50 [4]: 6.2 µM
- MIC90 MABA Rel to RMP [5]: 0.65
- MIC90 [5, 7]: 0.024 µM
- IC50 [6]: > 500 µM

Structure (SMILES): CO[C@H]1/C=C/O[C@@]2(C)Oc3c(C)c(O)c4c(=O)c(c5oc6cccc(OCc7cccc(CN8CCN(C(=O)Cc9ccccc9)CC8)c7)c6nc-5c4c3C2=O)NC(=O)/C(C)=C\C=C\[C@H](C)[C@H](O)[C@@H](C)[C@@H](O)[C@@H](C)[C@H](OC(C)=O)[C@@H]1C [Compound 11g, (7S,9E,11S,12R,13S,14R,15R,16R,17S,18S,19E,21Z)-2,15,17-Trihydroxy-11-methoxy-3,7,12,14,16,18,22-heptamethyl-6,23,37-trioxo-32-[(3-{[4-(2-phenylacetyl)-piperazin-1-yl]methyl}phenyl)methoxy]-8,27,38-trioxa-24,34-diazahexacyclo[23.11.1.1^4,7.0^5,36.0^26,35.0^28,33]octatriaconta-1(36)2,4,9,19,21,25,28,30,32,34-undecaen-13-yl acetate]
- DPX2 Viability @ 6.25 μM [1]: 88%
- DPX2 Viability @ 25 μM [1]: 70%
- IC50 [2]: 0.58 µM
- IC50 [3]: < 0.005 µM
- IC50 [4]: > 32 µM
- MIC90 MABA Rel to RMP [5]: 0.30
- MIC90 [5, 7]: 0.011 µM
- IC50 [6]: 28 µM

Structure (SMILES): CO[C@H]1/C=C/O[C@@]2(C)Oc3c(C)c(O)c4c(=O)c(c5oc6cccc(OCc7ccc(CN8CCN(C(=O)CN9CCOCC9)CC8)cc7)c6nc-5c4c3C2=O)NC(=O)/C(C)=C\C=C\[C@H](C)[C@H](O)[C@@H](C)[C@@H](O)[C@@H](C)[C@H](OC(C)=O)[C@@H]1C [Compound 16c, (7S,9E,11S,12R,13S,14R,15R,16R,17S,18S,19E,21Z)-2,15,17-Trihydroxy-11-methoxy-3,7,12,14,16,18,22-heptamethyl-32-{[4-({4-[2-(morpholin-4-yl)acetyl]piperazin-1-yl}methyl)phenyl]methoxy}-6,23,37-trioxo-8,27,38-trioxa-24,34-diazahexacyclo[23.11.1.1^4,7.0^5,36.0^26,35.0^28,33]octatriaconta-1(36)2,4,9,19,21,25,28,30,32,34-undecaen-13-yl acetate]
- DPX2 Viability @ 6.25 μM [1]: 96%
- DPX2 Viability @ 25 μM [1]: 55%
- IC50 [2]: 10 µM
- IC50 [3]: 0.005 µM
- IC50 [4]: > 8 µM
- MIC90 MABA Rel to RMP [5]: 0.51
- MIC90 [5, 7]: 0.019 µM
- IC50 [6]: 92 µM

Structure (SMILES): CO[C@H]1/C=C/O[C@@]2(C)Oc3c(C)c(O)c4c(=O)c(c5oc6cc(C)cc(N7CCN(CC(C)C)CC7)c6nc-5c4c3C2=O)NC(=O)/C(C)=C\C=C\[C@H](C)[C@H](O)[C@@H](C)[C@@H](O)[C@@H](C)[C@H](OC(C)=O)[C@@H]1C [Compound 30c, (7S,9E,11S,12R,13S,14R,15R,16R,17S,18S,19E,21Z)-2,15,17-Trihydroxy-11-methoxy-3,7,12,14,16,18,22,30-octamethyl-32-[4-(2-methylpropyl)piperazin-1-yl]-6,23,37-trioxo-8,27,38-trioxa-24,34-diazahexacyclo[23.11.1.1^4,7.0^5,36.0^26,35.0^28,33]octatriaconta-1(36)2,4,9,19,21,25,28,30,32,34-undecaen-13-yl acetate]
- DPX2 Viability @ 6.25 μM [1]: 93%
- DPX2 Viability @ 25 μM [1]: 49%
- IC50 [2]: 10 µM
- IC50 [3]: 0.006 µM
- IC50 [4]: > 8 µM
- MIC90 MABA Rel to RMP [5]: <0.6
- MIC90 [5, 7]: < 0.016 µM
- IC50 [6]: 130 µM

Structure (SMILES): CO[C@H]1/C=C/O[C@@]2(C)Oc3c(C)c(O)c4c(=O)c(c5oc6cc(C=Nc7ccc(N8CCOCC8)cc7)cc(N7CCN(C)CC7)c6nc-5c4c3C2=O)NC(=O)/C(C)=C\C=C\[C@H](C)[C@H](O)[C@@H](C)[C@@H](O)[C@@H](C)[C@H](OC(C)=O)[C@@H]1C [Compound 32, (7S,9E,11S,12R,13S,14R,15R,16R,17S,18S,19E,21Z)-2,15,17-trihydroxy-11-methoxy-3,7,12,14,16,18,22-heptamethyl-32-(4-methylpiperazin-1-yl)-30-{N-[4-(morpholin-4-yl)phenyl]carboximidoyl}-6,23,37-trioxo-8,27,38-trioxa-24,34-diazahexacyclo[23.11.1.1^4,7.0^5,36.0^26,35.0^28,33]octatriaconta-1,3,5(36)9,19,21,25,28,30,32,34-undecaen-13-yl acetate]
- DPX2 Viability @ 6.25 μM [1]: 116%
- DPX2 Viability @ 25 μM [1]: 100%
- IC50 [2]: 30 µM
- IC50 [3]: 0.01 µM
- IC50 [4]: > 8 µM
- MIC90 MABA Rel to RMP [5]: 1.74
- MIC90 [5, 7]: 0.047 µM
- IC50 [6]: 330 µM
